Experimental data reported in the NIST ThermoML archive (doi:10.1021/je049610v).

How the values were obtained:
[1] = refractive index (Na D-line) (dimensionless); xn = mol fraction of the nth substance listed; conditions: 101 kPa, Liquid
[2] = xn = mol fraction of the nth substance listed; conditions: 101 kPa, Liquid

OCCCl [1-chloro-2-hydroxyethane] + COc1ccccc1
Conditions | mass density, 298.15 K [kg/m3] | mass density, 303.15 K [kg/m3] | mass density, 308.15 K [kg/m3] | refractive index, 298.15 K | refractive index, 303.15 K | refractive index, 308.15 K | speed of sound, 298.15 K [m/s] | viscosity, 298.15 K [mPa·s] | viscosity, 303.15 K [mPa·s] | viscosity, 308.15 K [mPa·s]
[1], x2 = 0 | – | – | – | 1.4411 | 1.438 | 1.4326 | – | – | – | –
[1], x2 = 0.103 | – | – | – | 1.4495 | 1.4793 | 1.4468 | – | – | – | –
[1], x2 = 0.209 | – | – | – | 1.461 | 1.4586 | 1.4564 | – | – | – | –
[1], x2 = 0.313 | – | – | – | 1.4712 | 1.4684 | 1.4652 | – | – | – | –
[1], x2 = 0.395 | – | – | – | 1.4767 | 1.4745 | 1.4723 | – | – | – | –
[1], x2 = 0.49 | – | – | – | 1.4836 | 1.4807 | 1.4778 | – | – | – | –
[1], x2 = 0.59 | – | – | – | 1.4899 | 1.4879 | 1.4859 | – | – | – | –
[1], x2 = 0.69 | – | – | – | 1.4978 | 1.4951 | 1.4923 | – | – | – | –
[1], x2 = 0.797 | – | – | – | 1.5034 | 1.5011 | 1.4999 | – | – | – | –
[1], x2 = 0.898 | – | – | – | 1.5094 | 1.5067 | 1.5041 | – | – | – | –
[2], x2 = 0 | 1200.9 | 1192.5 | 1187.1 | – | – | – | 1358 | 3.104 | 2.669 | 2.347
[2], x2 = 0.103 | 1165.8 | 1158.6 | 1153.9 | – | – | – | 1365 | 2.6 | 2.334 | 2.068
[2], x2 = 0.209 | 1134.5 | 1129 | 1123.7 | – | – | – | 1372 | 2.13 | 1.943 | 1.755
[2], x2 = 0.313 | 1107.6 | 1102.5 | 1097.5 | – | – | – | 1378 | 1.778 | 1.631 | 1.485
[2], x2 = 0.395 | 1088.7 | 1083.9 | 1078.8 | – | – | – | 1382 | 1.583 | 1.452 | 1.32
[2], x2 = 0.49 | 1068.8 | 1064.3 | 1058.9 | – | – | – | 1388 | 1.418 | 1.289 | 1.16
[2], x2 = 0.59 | 1049.8 | 1044.8 | 1040.1 | – | – | – | 1392 | 1.269 | 1.158 | 1.046
[2], x2 = 0.69 | 1032.5 | 1027.5 | 1023 | – | – | – | 1397 | 1.155 | 1.064 | 0.972
[2], x2 = 0.797 | 1015.9 | 1010 | 1006.6 | – | – | – | 1402 | 1.087 | 1.004 | 0.921
[2], x2 = 0.898 | 1001.9 | 996.1 | 992.5 | – | – | – | 1406 | 1.007 | 0.936 | 0.865

COc1ccccc1 [anisole] + C1COCCO1
Conditions | mass density, 298.15 K [kg/m3] | mass density, 303.15 K [kg/m3] | mass density, 308.15 K [kg/m3] | refractive index, 298.15 K | refractive index, 303.15 K | refractive index, 308.15 K | speed of sound, 298.15 K [m/s] | viscosity, 298.15 K [mPa·s] | viscosity, 303.15 K [mPa·s] | viscosity, 308.15 K [mPa·s]
[1], x1 = 0.0982 | – | – | – | 1.432 | 1.4295 | 1.427 | – | – | – | –
[1], x1 = 0.199 | – | – | – | 1.4434 | 1.4408 | 1.4383 | – | – | – | –
[1], x1 = 0.296 | – | – | – | 1.4538 | 1.4514 | 1.4496 | – | – | – | –
[1], x1 = 0.398 | – | – | – | 1.4647 | 1.4628 | 1.4603 | – | – | – | –
[1], x1 = 0.5046 | – | – | – | 1.475 | 1.472 | 1.47 | – | – | – | –
[1], x1 = 0.6044 | – | – | – | 1.484 | 1.4814 | 1.4789 | – | – | – | –
[1], x1 = 0.7057 | – | – | – | 1.4925 | 1.4899 | 1.4872 | – | – | – | –
[1], x1 = 0.8028 | – | – | – | 1.5009 | 1.4982 | 1.4956 | – | – | – | –
[1], x1 = 0.9005 | – | – | – | 1.5084 | 1.5054 | 1.5025 | – | – | – | –
[1], x1 = 1 | – | – | – | 1.5148 | 1.5124 | 1.5092 | – | – | – | –
[2], x1 = 0.0982 | 1023.3 | 1017.9 | 1012.9 | – | – | – | 1355 | 1.342 | 1.185 | 1.028
[2], x1 = 0.199 | 1018.4 | 1013.2 | 1008.2 | – | – | – | 1364 | 1.267 | 1.128 | 0.99
[2], x1 = 0.296 | 1014 | 1008.6 | 1003.9 | – | – | – | 1371 | 1.19 | 1.074 | 0.957
[2], x1 = 0.398 | 1009.7 | 1004.6 | 999.8 | – | – | – | 1378 | 1.12 | 1.028 | 0.936
[2], x1 = 0.5046 | 1005.5 | 1000.6 | 995.7 | – | – | – | 1385 | 1.072 | 0.994 | 0.917
[2], x1 = 0.6044 | 1001.8 | 996.9 | 992.1 | – | – | – | 1390 | 1.048 | 0.976 | 0.904
[2], x1 = 0.7057 | 998.3 | 993.5 | 988.6 | – | – | – | 1396 | 1.042 | 0.969 | 0.897
[2], x1 = 0.8028 | 995.1 | 990.5 | 985.4 | – | – | – | 1401 | 1.032 | 0.957 | 0.883
[2], x1 = 0.9005 | 991.9 | 987.4 | 982.4 | – | – | – | 1405 | 1.011 | 0.941 | 0.87
[2], x1 = 1 | 988.9 | 984.1 | 979.4 | – | – | – | 1410 | 0.992 | 0.919 | 0.853
